Patent US9241928B2, “Antimicrobial compounds” (The General Hospital Corporation, priority 2009, dated 2016)
Values after ≈ are worked out from the molar mass of the structure shown.

Columns and labels:
E. faecalis MMH594 = test: MIC assay, E. faecalis in vitro; assay type: cell-based; settings: Enterococcus faecalis; E. faecalis MMH594 in 20% BHI, 80% M9, 37° C., 15 hours, scored by eye
Protocol: A culture of E. faecalis MMH594 was grown overnight in BHI broth to stationary phase at 37° C. with aeration. The culture was diluted to an approximate density of […] in worm infection media (20% BHI, 80% M9 buffer). 12.5 μl of the bacterial culture dilution was inoculated into 384-well plates containing 12.5 μl of 2-fold serial dilutions of a test compound. […] Plates were incubated at 37° C. for 15 hours and scored by eye for bacterial growth.

[1] = tested on: E. faecalis strain MMH594; test: Antimicrobial (bacterial killing) assay; assay type: cell-based, Enterococcus faecalis; settings: mM concentrations, 1 to 30 minutes, room temperature
Protocol: Compounds 6, 7, 15 were purchased from TimTec and ChemDiv, dissolved in DMSO at a concentration of 5 or 10 mg/ml, and further diluted in DMSO as indicated. E. faecalis strain MMH594 was grown overnight with aeration at 37° C. in Bacto brain heart infusion (BHI) broth (Becton Dickinson), transferred to ice, and washed in phosphate-buffered saline (PBS; pH 7.2). Equal volumes of a dissolved compound and bacteria were mixed, incubated at room temperature for 1 to 30 minutes, ten-fold serially diluted in PBS, and plated in […] droplets on BHI agar plates. Plates were incubated at room temperature until colonies were visible.

[2] = tested on: a Staphylococcus aureus strain; test: Bacterial killing, Staphylococcus aureus strain (data not shown); assay type: cell-based
[3] = tested on: a different Enterococcus faecalis strain; test: Bacterial killing, different Enterococcus faecalis strain (data not shown); assay type: cell-based
E. faecalis strain V583 [4] = test: Biofilm maintenance assay (crystal violet); assay type: cell-based, Enterococcus faecalis; settings: 10 μg/ml added to biofilm established for 24 hours
Protocol: To test for the efficacy of candidate compounds on biofilm maintenance, a bacterial culture of OD600=0.025 was grown in 96-well polystyrene plates for 24 hours as described above to establish biofilm mass prior to the addition of candidate compounds dissolved in DMSO at a final concentration of 10 μg/ml. The plates were then processed as described above.

E. faecalis strain V583 [5] = test: Biofilm formation assay (crystal violet); assay type: cell-based, Enterococcus faecalis; settings: 10 μg/ml, 24 hours
Protocol: To test the efficacy of candidate compounds on biofilm formation, a dilute bacterial culture of Enterococcus faecalis was incubated with candidate compounds in polystyrene plates and the level of biofilm formation was quantified by measuring the amount of crystal violet absorbed by the biofilm mass attached to plastic. First, E. faecalis strain V583 was grown at 37° C. for 16 hours in Tryptic Soy Broth (TSB) with 1% glucose. The bacterial culture was diluted to OD600=0.025 in fresh medium and was dispensed into 96-well polystyrene plates. Candidate compounds dissolved in dimethylsulfoxide (DMSO) were added to the wells to provide a final concentration of 10 μg/ml and the plates were incubated statically at 37° C. for 24 hours. After incubation, the medium was aspirated, the planktonic cells were removed by washing with phosphate buffered saline (PBS), and the plates were inverted and dried for 1 hour at room temperature. The biofilm mass was stained with 0.2% crystal violet for 15 minutes and extraneous crystal violet was washed away with PBS. The crystal violet absorbed by the biofilm was extracted with an 80% ethanol, 20% acetone mixture and the absorbance at 595 nm (OD595) was read with a spectrophotometer.

[6] = tested on: C. elegans infected with E. faecalis; test: Dose response time courses in the C. elegans-E. faecalis infection assay; assay type: in vivo, Caenorhabditis elegans; settings: Effective Concentration: survival significantly different from mock-treated, p-value <0.05, logrank; read-out: EC
Protocol: glp-4(bn2); sek-1 (km4) mutant worms were grown to gravid adult stage. 1,000 worms at the L1 stage were grown for 5.2 days at 15° C. on 9-cm plates of SK agar media spread with a lawn of E. coli strain HB101. Embryos from the gravid adults were isolated by a previously described hypochlorite method (see Tan et al., (1999) Proc. Natl. Acad. Sci. USA 96, 715-720) and hatched at 15° C. for 2 days. Approximately 4,500 of the Ll hatchlings were grown on each 9-cm plate of SK-NS agar (SK media with 62.5 U/ml nystatin and 100 μg/ml streptomycin) and with lawns of E. coli HB101. These worms were grown at 25° C. for 52 hours to generate sterile, young adults.
A culture of E. faecalis MMH594 was grown in BHI broth (BD Difco) with 80 μg/ml kanamycin at 37° C. for 6 hours and 100 μl of the culture were spread onto each 9-cm plate of BHI agar containing 80 μg/mlkanamycin. Lawns of E. faecalis were grown at 25° C. for 16 hours and transferred to 15° C. for 8 hours.
Sterile adult worms were resuspended in M9 buffer and washed twice with M9 in a 1:10 ratio to remove E. coli. 8,000 worms were pipetted onto each lawn of E. faecalis and incubated 15 hours at 15° C. After infection, the worms were resuspended in M9 and used as described below. 384-well plates (Corning #3712) were filled with 55 μl media (see below) using a Thermo Scientific MULTIDROP Combi reagent dispenser. 0.3 μl of a candidate compound in DSMO were pin transferred into each well using a CyBio CYBI-Well vario transfer system. The plates were agitated using an Eppendorf MIXMATE at 1,800 rpm for 15 seconds. Using the Union Biometrica Complex Object Parametric Analyzer and Sorter (COPAS) BIOSORT worm sorter according to manufacturer's protocols, 15 of the infected worms were transferred to each well in a total volume of approximately 15 μl. Total volume per well is 70 μl/well with a final composition of the media being 20% BHI, […], 80 μg/ml kanamycin, 62.5 U/ml nystatin, 1% DMSO, and 19% sheath solution (Union Biometrica Part #300-5101-000). Plates were vortexed for 5 seconds, centrifuged at 1000×g for 10 seconds, and sealed with gas permeable membranes (BREATHEASY Diversified). Plates were placed in a single layer on the top shelves in a 26.3° C. incubator at 85% relative humidity (RH) and incubated without agitation for 5 days.
The dose dependence of certain antimicrobial compounds identified by the assay above were studied. These compounds were purchased in a larger amount from commercial sources. For each of these compounds, an infection assay was performed essentially as described above at different concentrations except that SYTOX staining was not used. Instead, bright-field images of the wells were acquired at daily time points and scored manually for worm survival by analyzing worm body positioning. […] All compounds used in this assays were confirmed for their identity and purity by liquid chromatography/mass spectrometry.

Drosophila infection = test: Drosophila infection-survival bioassay (data not shown); assay type: in vivo
F56D6.2 = test: qRT-PCR of immune response gene expression; assay type: in vivo, Caenorhabditis elegans; settings: 20 μg/mL versus DMSO
Text: (§1) Caenorhabditis elegans strains were maintained on Escherichia coli OP50 as described in Brenner, Genetics, 1974, 77:71-94. Wildtype N2 nematodes carrying integrated transgenes acIs219 (AU78), acIs101(AY101), agIs17(AU133), or agIs26 (AU185) (see (1) Shivers, et al., PLoS. Genet. 2010, 6: e1000892, (2) Bolz et al., J. Biol. Chem. 2010, 285:10832-40, (3) Estes et al., Proc. Natl. Acad. Sci., 2010, 107:2153-8, and (4) Irazoqui et al., Proc. Natl. Acad. Sci., 2008, 105:17469-74) were used to assay the immunomodulatory activity of candidate compounds. For qRT-PCR experiments, RNA was extracted from synchronized young adult nematodes exposed to a candidate compound or DMSO (as a control) using TRI Reagent and reverse transcribed using the Retroscript kit (Ambion). This cDNA was then subjected to qRT-PCR analysis using SYBR green detection on a CFX1000 machine (Bio-Rad, http://www.bio-rad.com). Primers for qRT-PCR were obtained from published sequences (see Irazoqui et al., Proc. Natl. Acad. Sci., 2008, 105:17469-74 and Troemel et al., PLoS Genet. 2006, 2:e183). […] Fold change was calculated using the Pfaffl method (see Pfaffl et al., Nucleic Acids Res., 2001, 29:e45).
(§2) By using the assay described above, the inventors identified five compounds (i.e., Compounds 11, 18, 20, 25, and 26) that robustly and reproducibly activated the immune GFP reporters (see FIG. 5 and Table 3) or activated selected immune response genes as determined by quantitative RT-PCR analysis (see Table 4). For the latter experiments, RNA was isolated from wild-type C. elegans N2 or pmk-1 mutant animals exposed to the candidate immunomodulatory compounds at 20 μg/mL and from animals exposed to DMSO. The inventors tested several immune response genes in compound-exposed animals that are known to be regulated by PMK-1, the p38 Mitogen Acitvated Protein kinase homolog, an evolutionary-conserved, central regulator of nematode immunity. The inventors also used qRT-PCR to measure the activation of several immune response genes that are known to be activated independently of PMK-1. […] Thus, without wishing to be bound by theory, it is believed that a subset of the compounds identified in the screen for novel anti-infective compounds directly stimulate the immune response of the nematode and that these compounds act both by directly stimulating the PMK-1 pathway and by unidentified parallel immune response pathways.

T24B8.5 = test: qRT-PCR of immune response gene expression; assay type: in vivo, Caenorhabditis elegans; settings: 20 μg/mL versus DMSO
Text: as §1, §2

F35E12.5 = test: qRT-PCR of immune response gene expression; assay type: in vivo, Caenorhabditis elegans; settings: 20 μg/mL versus DMSO
Text: as §1, §2

C17H12.8 = test: qRT-PCR of immune response gene expression; assay type: in vivo, Caenorhabditis elegans; settings: 20 μg/mL versus DMSO
Text: as §1, §2

irg-1 = test: qRT-PCR of immune response gene expression; assay type: in vivo, Caenorhabditis elegans; settings: 20 μg/mL versus DMSO
Text: as §1, §2

F53E10.4 = test: qRT-PCR of immune response gene expression; assay type: in vivo, Caenorhabditis elegans; settings: 20 μg/mL versus DMSO
Text: as §1, §2

C49G7.5 = test: qRT-PCR of immune response gene expression; assay type: in vivo, Caenorhabditis elegans; settings: 20 μg/mL versus DMSO
Text: as §1, §2

immune response genes = test: qRT-PCR of immune response genes, PMK-1 dependence (overall); assay type: in vivo, Caenorhabditis elegans; settings: 20 μg/mL, N2 or pmk-1 mutant animals
Text: as §1
By using the assay described above, the inventors identified five compounds (i.e., Compounds 11, 18, 20, 25, and 26) that robustly and reproducibly activated the immune GFP reporters (see FIG. 5 and Table 3) or activated selected immune response genes as determined by quantitative RT-PCR analysis (see Table 4). For the latter experiments, RNA was isolated from wild-type C. elegans N2 or pmk-1 mutant animals exposed to the candidate immunomodulatory compounds at 20 μg/mL and from animals exposed to DMSO. The inventors tested several immune response genes in compound-exposed animals that are known to be regulated by PMK-1, the p38 Mitogen Acitvated Protein kinase homolog, an evolutionary-conserved, central regulator of nematode immunity. The inventors also used qRT-PCR to measure the activation of several immune response genes that are known to be activated independently of PMK-1. […]

T24B8.5::GFP = test: Immune GFP reporter induction, transgene acIs219; assay type: in vivo, Caenorhabditis elegans; settings: compound-exposed versus DMSO-exposed animals, visual
Text: as §1
Without wishing to be bound by theory, it was hypothesized that a subset of these compounds cured nematode infection by directly activating the innate immune response of the animal. To test this hypothesis, a multi-faceted approach was used. First, the inventors studied four C. elegans strains in which the promoter of the nematode immune response genes T24B8.5, F35E12.5, irg-1 and clec-60 were individually fused to GFP, generating transgenes acIs219 (AU78), acIs101(AY101), agIs17(AU133), or agIs26 (AU185), respectively, thereby allowing a visual readout of gene activity in each strain. Using these reporter strains, the ability of 33 compounds previously shown to have anti-Enterococcal killing activity in the C. elegans infection assay (24 of which have been described above) were tested for their ability to modulate the nematode immune response.

With O=C(O)C1CC(=O)N(CCC23CC4CC(CC(C4)C2)C3)/C(=N\c2ccc(Cl)cc2)S1 (stereo not shown) [Compound 6] the MIC (E. faecalis MMH594) was 6.25 µg/mL (≈ 14 µM), the “bactericidal activity (FIGS. 7A and 7B)” value [1] was “rapid killing of bacteria” and the “killing of a Staphylococcus aureus strain” value [2] was “killed”. The “killing of a different Enterococcus faecalis strain” value [3] was “killed”, the “biofilm maintenance (OD595, FIG. 3B)” value (E. faecalis strain V583 [4]) was “disrupted biofilm once it was formed” and the “biofilm formation (OD595, FIG. 3A)” value (E. faecalis strain V583 [5]) was “prevented E. faecalis biofilm formation”. The minimal effective concentration [6] was 0.39 µg/mL and the “bactericidal activity in Drosophila infection-survival bioassay” value (Drosophila infection) was “showed bactericidal activity”.

For O=C(O)CSCC(=O)N1CCn2c3c(c4cc(C5CCCCC5)ccc42)CCCC31 (stereo not shown) [Compound 15], the “bactericidal activity (FIGS. 7A and 7B)” value [1] was “rapid killing of bacteria”, the “killing of a Staphylococcus aureus strain” value [2] was “killed” and the “killing of a different Enterococcus faecalis strain” value [3] was “killed”. For the same compound, the “bactericidal activity in Drosophila infection-survival bioassay” value (Drosophila infection) was “showed bactericidal activity”.

With CC(C)(c1ccc(NS(=O)(=O)C(F)(F)F)cc1)c1ccc(C(C)(C)c2cccc(NS(=O)(=O)C(F)(F)F)c2)cc1 [Compound 18] the “F56D6.2 expression, average fold-change” value (F56D6.2; genotype N2) was 2.2 fold-change, the “F56D6.2 expression, average fold-change” value (F56D6.2; genotype pmk-1(km25)) was 1.0 fold-change and the “T24B8.5 expression, average fold-change” value (T24B8.5; genotype N2) was 2.6 fold-change. For the same compound, the “T24B8.5 expression, average fold-change” value (T24B8.5; genotype pmk-1(km25)) was 0.3 fold-change, the “F35E12.5 expression, average fold-change” value (F35E12.5; genotype N2) was 10.6 fold-change and the “F35E12.5 expression, average fold-change” value (F35E12.5; genotype pmk-1(km25)) was 0.4 fold-change. The “C17H12.8 expression, average fold-change” value (C17H12.8; genotype N2) was 10.2 fold-change, the “C17H12.8 expression, average fold-change” value (C17H12.8; genotype pmk-1(km25)) was 0.3 fold-change and the “irg-1 expression, average fold-change” value (irg-1; genotype N2) was 1.5 fold-change. The “irg-1 expression, average fold-change” value (irg-1; genotype pmk-1(km25)) was 4.4 fold-change, the “F53E10.4 expression, average fold-change” value (F53E10.4; genotype N2) was 0.2 fold-change and the “F53E10.4 expression, average fold-change” value (F53E10.4; genotype pmk-1(km25)) was 0.3 fold-change. For the same compound, the “C49G7.5 expression, average fold-change” value (C49G7.5; genotype N2) was 11.1 fold-change, the “C49G7.5 expression, average fold-change” value (C49G7.5; genotype pmk-1(km25)) was 57.4 fold-change and the “PMK-1 dependence of immune response gene activation” value (immune response genes) was “activated at least one immune response gene in the nematode in a manner independent of PMK-1”. For the same compound, the “immune reporter induction T24B8.5::GFP” value (T24B8.5::GFP) was “+”.
